Patent US9707185B2, “Water-soluble nanoparticles containing water-insoluble compounds” (Board of Supervisors of Louisana State University And …, priority 2007, dated 2017)
Like-named read-outs stand apart in the source and are kept apart here.

Key:
[1] = cited from earlier work; for Comments: stability: light, heat, acid, oxidation, SO2, ascorbic acid; for Comments: solubility: water / lipid solubility
[2] = β-carotene solubility in organic solvents; format: physicochemical; conditions: organic solvent or mixture
[3] = color photographs, dispersed in water

Row | Compound | Comments: stability ([1]; in presence of ascorbic acid) | Comments: solubility [1] | also measured
1 | Cc1c(C(=O)O)c(O)cc2c1C(=O)c1c(O)c([C@@H]3O[C@H](CO)[C@@H](O)[C@H](O)[C@H]3O)c(O)c(O)c1C2=O [Carmine, carminic acid, carminic acid] | Fades in the presence of ascorbic acid or SO2 | Water soluble | Comments: stability ([1]; to light, heat and acid): Good stability to light, heat, and acid
2 | COc1cc(/C=C/C(=O)CC(=O)/C=C/c2ccc(O)c(OC)c2)ccc1O [Curcumin] |  | low water solubility | 
3 | CC1=C[C@H](O)CC(C)(C)[C@H]1/C=C/C(C)=C/C=C/C(C)=C/C=C/C=C(C)/C=C/C=C(C)/C=C/C1=C(C)C[C@@H](O)CC1(C)C [Lutein] | Fades in the presence of ascorbic acid. |  | Comments: stability ([1]; to light): Poor stability to light, heat, acid, oxidation, and SO2.
4 | CC1=C(/C=C/C(C)=C/C=C/C(C)=C/C=C/C=C(C)/C=C/C=C(C)/C=C/C2=C(C)CCCC2(C)C)C(C)(C)CCC1 [β-carotene] |  |  | solubility [2]: ≤ 20 mg/mL; color and distribution in water [3]: non-uniform color and distribution
5 | Capsanthin/capsorubin |  |  | Comments: stability [1]: Fair stability to light and heat
6 | Chlorophyll |  | Liposoluble. Not allowed as a colorant in the U.S. | 
